The NIST ThermoML archive (doi:10.1021/je400423u)
± gives the expanded uncertainty stated by the source.

Test: xn = mol fraction of the nth substance listed
Conditions: 101 kPa, Liquid; for viscosity: Falling or rolling sphere viscometry; for mass density: Vibrating tube method

## CC(C)CO [2-methyl-1-propanol] + CC(C)(C)O
308.15 K, x1 = 0.1038
  viscosity: 2.723 ± 0.021 mPa·s
  mass density: 773.016 ± 0.12 kg/m3
308.15 K, x1 = 0.2004
  viscosity: 2.802 ± 0.022 mPa·s
  mass density: 775.321 ± 0.12 kg/m3
308.15 K, x1 = 0.3131
  viscosity: 2.84 ± 0.022 mPa·s
  mass density: 777.898 ± 0.12 kg/m3
308.15 K, x1 = 0.3971
  viscosity: 2.837 ± 0.022 mPa·s
  mass density: 779.742 ± 0.12 kg/m3
308.15 K, x1 = 0.4999
  viscosity: 2.812 ± 0.022 mPa·s
  mass density: 781.894 ± 0.12 kg/m3
308.15 K, x1 = 0.6002
  viscosity: 2.773 ± 0.022 mPa·s
  mass density: 783.901 ± 0.12 kg/m3
308.15 K, x1 = 0.6999
  viscosity: 2.723 ± 0.021 mPa·s
  mass density: 785.765 ± 0.12 kg/m3
308.15 K, x1 = 0.7993
  viscosity: 2.667 ± 0.021 mPa·s
  mass density: 787.468 ± 0.12 kg/m3
308.15 K, x1 = 0.8941
  viscosity: 2.607 ± 0.02 mPa·s
  mass density: 788.855 ± 0.12 kg/m3
308.15 K, x1 = 1
  viscosity: 2.382 ± 0.019 mPa·s
  mass density: 790.12 ± 0.12 kg/m3
313.15 K, x1 = 0.1038
  viscosity: 2.19 ± 0.017 mPa·s
  mass density: 767.906 ± 0.13 kg/m3
313.15 K, x1 = 0.2004
  viscosity: 2.263 ± 0.018 mPa·s
  mass density: 770.357 ± 0.13 kg/m3
313.15 K, x1 = 0.3131
  viscosity: 2.312 ± 0.018 mPa·s
  mass density: 773.062 ± 0.12 kg/m3
313.15 K, x1 = 0.3971
  viscosity: 2.327 ± 0.018 mPa·s
  mass density: 774.993 ± 0.12 kg/m3
313.15 K, x1 = 0.4999
  viscosity: 2.329 ± 0.018 mPa·s
  mass density: 777.281 ± 0.12 kg/m3
313.15 K, x1 = 0.6002
  viscosity: 2.317 ± 0.018 mPa·s
  mass density: 779.435 ± 0.12 kg/m3
313.15 K, x1 = 0.6999
  viscosity: 2.294 ± 0.018 mPa·s
  mass density: 781.451 ± 0.12 kg/m3
313.15 K, x1 = 0.7993
  viscosity: 2.264 ± 0.018 mPa·s
  mass density: 783.274 ± 0.12 kg/m3
313.15 K, x1 = 0.8941
  viscosity: 2.229 ± 0.017 mPa·s
  mass density: 784.79 ± 0.12 kg/m3
313.15 K, x1 = 1
  viscosity: 2.116 ± 0.017 mPa·s
  mass density: 786.12 ± 0.12 kg/m3
318.15 K, x1 = 0.1038
  viscosity: 1.786 ± 0.014 mPa·s
  mass density: 762.689 ± 0.13 kg/m3
318.15 K, x1 = 0.2004
  viscosity: 1.852 ± 0.015 mPa·s
  mass density: 765.271 ± 0.13 kg/m3
318.15 K, x1 = 0.3131
  viscosity: 1.904 ± 0.015 mPa·s
  mass density: 768.112 ± 0.13 kg/m3
318.15 K, x1 = 0.3971
  viscosity: 1.93 ± 0.015 mPa·s
  mass density: 770.15 ± 0.13 kg/m3
318.15 K, x1 = 0.4999
  viscosity: 1.949 ± 0.015 mPa·s
  mass density: 772.578 ± 0.12 kg/m3
318.15 K, x1 = 0.6002
  viscosity: 1.955 ± 0.015 mPa·s
  mass density: 774.881 ± 0.12 kg/m3
318.15 K, x1 = 0.6999
  viscosity: 1.954 ± 0.015 mPa·s
  mass density: 777.066 ± 0.12 kg/m3
318.15 K, x1 = 0.7993
  viscosity: 1.94 ± 0.015 mPa·s
  mass density: 779.045 ± 0.12 kg/m3
318.15 K, x1 = 0.8941
  viscosity: 1.919 ± 0.015 mPa·s
  mass density: 780.694 ± 0.12 kg/m3
318.15 K, x1 = 1
  viscosity: 1.861 ± 0.015 mPa·s
  mass density: 782.06 ± 0.12 kg/m3
323.15 K, x1 = 0.1038
  viscosity: 1.479 ± 0.012 mPa·s
  mass density: 757.428 ± 0.13 kg/m3
323.15 K, x1 = 0.2004
  viscosity: 1.536 ± 0.012 mPa·s
  mass density: 760.154 ± 0.13 kg/m3
323.15 K, x1 = 0.3131
  viscosity: 1.59 ± 0.013 mPa·s
  mass density: 763.135 ± 0.13 kg/m3
323.15 K, x1 = 0.3971
  viscosity: 1.619 ± 0.013 mPa·s
  mass density: 765.278 ± 0.13 kg/m3
323.15 K, x1 = 0.4999
  viscosity: 1.643 ± 0.013 mPa·s
  mass density: 767.832 ± 0.13 kg/m3
323.15 K, x1 = 0.6002
  viscosity: 1.658 ± 0.013 mPa·s
  mass density: 770.282 ± 0.13 kg/m3
323.15 K, x1 = 0.6999
  viscosity: 1.664 ± 0.013 mPa·s
  mass density: 772.615 ± 0.12 kg/m3
323.15 K, x1 = 0.7993
  viscosity: 1.662 ± 0.013 mPa·s
  mass density: 774.761 ± 0.12 kg/m3
323.15 K, x1 = 0.8941
  viscosity: 1.655 ± 0.013 mPa·s
  mass density: 776.498 ± 0.12 kg/m3
323.15 K, x1 = 1
  viscosity: 1.602 ± 0.013 mPa·s
  mass density: 777.93 ± 0.12 kg/m3
328.15 K, x1 = 0.1038
  viscosity: 1.243 ± 0.0098 mPa·s
  mass density: 752.049 ± 0.13 kg/m3
328.15 K, x1 = 0.2004
  viscosity: 1.293 ± 0.01 mPa·s
  mass density: 754.907 ± 0.13 kg/m3
328.15 K, x1 = 0.3131
  viscosity: 1.342 ± 0.011 mPa·s
  mass density: 758.027 ± 0.13 kg/m3
328.15 K, x1 = 0.3971
  viscosity: 1.372 ± 0.011 mPa·s
  mass density: 760.272 ± 0.13 kg/m3
328.15 K, x1 = 0.4999
  viscosity: 1.4 ± 0.011 mPa·s
  mass density: 762.978 ± 0.13 kg/m3
328.15 K, x1 = 0.6002
  viscosity: 1.42 ± 0.011 mPa·s
  mass density: 765.582 ± 0.13 kg/m3
328.15 K, x1 = 0.6999
  viscosity: 1.433 ± 0.011 mPa·s
  mass density: 768.076 ± 0.13 kg/m3
328.15 K, x1 = 0.7993
  viscosity: 1.438 ± 0.011 mPa·s
  mass density: 770.382 ± 0.13 kg/m3
328.15 K, x1 = 0.8941
  viscosity: 1.439 ± 0.011 mPa·s
  mass density: 772.239 ± 0.12 kg/m3
328.15 K, x1 = 1
  mass density: 773.73 ± 0.12 kg/m3
333.15 K, x1 = 0.1038
  viscosity: 1.057 ± 0.0086 mPa·s
  mass density: 746.582 ± 0.14 kg/m3
333.15 K, x1 = 0.2004
  viscosity: 1.099 ± 0.0089 mPa·s
  mass density: 749.576 ± 0.13 kg/m3
333.15 K, x1 = 0.3131
  viscosity: 1.145 ± 0.0092 mPa·s
  mass density: 752.825 ± 0.13 kg/m3
333.15 K, x1 = 0.3971
  viscosity: 1.173 ± 0.0094 mPa·s
  mass density: 755.183 ± 0.13 kg/m3
333.15 K, x1 = 0.4999
  viscosity: 1.202 ± 0.0095 mPa·s
  mass density: 758.038 ± 0.13 kg/m3
333.15 K, x1 = 0.6002
  viscosity: 1.224 ± 0.0097 mPa·s
  mass density: 760.796 ± 0.13 kg/m3
333.15 K, x1 = 0.6999
  viscosity: 1.241 ± 0.0098 mPa·s
  mass density: 763.457 ± 0.13 kg/m3
333.15 K, x1 = 0.7993
  viscosity: 1.251 ± 0.0099 mPa·s
  mass density: 765.918 ± 0.13 kg/m3
333.15 K, x1 = 0.8941
  viscosity: 1.257 ± 0.0099 mPa·s
  mass density: 767.911 ± 0.13 kg/m3
333.15 K, x1 = 1
  mass density: 769.44 ± 0.13 kg/m3
338.15 K, x1 = 0.1038
  viscosity: 0.9089 ± 0.0077 mPa·s
  mass density: 741.045 ± 0.14 kg/m3
338.15 K, x1 = 0.2004
  viscosity: 0.9461 ± 0.0079 mPa·s
  mass density: 744.179 ± 0.14 kg/m3
338.15 K, x1 = 0.3131
  viscosity: 0.9857 ± 0.0082 mPa·s
  mass density: 747.58 ± 0.14 kg/m3
338.15 K, x1 = 0.3971
  viscosity: 1.013 ± 0.0083 mPa·s
  mass density: 750.026 ± 0.13 kg/m3
338.15 K, x1 = 0.4999
  viscosity: 1.042 ± 0.0085 mPa·s
  mass density: 753.002 ± 0.13 kg/m3
338.15 K, x1 = 0.6002
  viscosity: 1.064 ± 0.0087 mPa·s
  mass density: 755.897 ± 0.13 kg/m3
338.15 K, x1 = 0.6999
  viscosity: 1.081 ± 0.0088 mPa·s
  mass density: 758.701 ± 0.13 kg/m3
338.15 K, x1 = 0.7993
  viscosity: 1.094 ± 0.0088 mPa·s
  mass density: 761.298 ± 0.13 kg/m3
338.15 K, x1 = 0.8941
  viscosity: 1.105 ± 0.0089 mPa·s
  mass density: 763.412 ± 0.13 kg/m3
338.15 K, x1 = 1
  mass density: 765.07 ± 0.13 kg/m3
343.15 K, x1 = 0.1038
  viscosity: 0.7889 ± 0.007 mPa·s
  mass density: 735.409 ± 0.14 kg/m3
343.15 K, x1 = 0.2004
  viscosity: 0.8213 ± 0.0072 mPa·s
  mass density: 738.697 ± 0.14 kg/m3
343.15 K, x1 = 0.3131
  viscosity: 0.8569 ± 0.0074 mPa·s
  mass density: 742.239 ± 0.14 kg/m3
343.15 K, x1 = 0.3971
  viscosity: 0.8812 ± 0.0075 mPa·s
  mass density: 744.793 ± 0.14 kg/m3
343.15 K, x1 = 0.4999
  viscosity: 0.9085 ± 0.0077 mPa·s
  mass density: 747.895 ± 0.14 kg/m3
343.15 K, x1 = 0.6002
  viscosity: 0.9302 ± 0.0078 mPa·s
  mass density: 750.924 ± 0.13 kg/m3
343.15 K, x1 = 0.6999
  viscosity: 0.9494 ± 0.0079 mPa·s
  mass density: 753.891 ± 0.13 kg/m3
343.15 K, x1 = 0.7993
  viscosity: 0.9642 ± 0.008 mPa·s
  mass density: 756.647 ± 0.13 kg/m3
343.15 K, x1 = 0.8941
  viscosity: 0.9753 ± 0.0081 mPa·s
  mass density: 758.895 ± 0.13 kg/m3
343.15 K, x1 = 1
  mass density: 760.61 ± 0.13 kg/m3
